Experimental data: patent publication US10703757B2, “Compounds and methods for CDK8 modulation and indications therefor” (Plexxikon Inc., priority 2016, dated 2020)

How the values were obtained:
[1] = tested on: CDK8 (TCF/LEF luciferase reporter in HCT116 cells); assay: Cell based TCF/LEF reporter assay (HCT116+TCF/LEF luciferase); conditions: Homo sapiens, HCT-116, 24 h
Text: Determine Inhibitor Activity Against CDK8 in Cell Based TCF/LEF Reporter Assay
The colorectal carcinoma cell line HCT116 was stably transduced with lentivirus encoding the TCF/LEF promoter upstream of a luciferase reporter gene (Qiagen) and single cell clones expressing this construct (referred to as HCT116+TCF/LEF) were isolated. HCT116 express endogenous mutant β-catenin^3, resulting in up-regulation of transcription through the TCF/LEF promoter. Expression of the TCF/LEF reporter construct in HCT116 results in constitutive expression of luciferase. Treatment of the cells with inhibitors of components of the β-catenin signaling pathway (such as CDK8) results in decreased expression of luciferase. The assay is performed as follows. The HCT116+TCF/LEF cell line is seeded in a 96 well plate in 50 μL of culture media at 1×10^4 cells/well and incubated at 37° C. overnight. Serial dilutions of compounds (in total volume of 50 μL culture media) are added to the cells and incubated at 37° C. for 24 hours. 4 wells of DMSO treated cells serve as high controls and cells treated with 10 uM of the reference compound CCT251545 (a known CDK8 inhibitor)^4 serve as low controls. The viability of the cells is assayed by the addition of […] reagent (Promega) followed by 30 minute incubation at 37° C. and quantification of the fluorescent signal (Ex400/Em505). The luciferase expression is then assayed by the addition of 25 μL ONE-Glo reagent (Promega) followed by 10 minute incubation at room temperature and quantification of the luminescence signal. The luminescence signal is normalized to the fluorescence signal to correct for any loss in cell viability over the 24 hour compound incubation period. The percentage inhibition at individual concentrations relative to high and low controls is calculated. The data are analyzed by using nonlinear regression to generate IC50 values.

[2] = tested on: CDK8 (phosphorylation of STAT1 at serine 727 in A549 cells); assay: Cell based Phospho-STAT1 assay (IFNγ-stimulated A549 cells, AlphaLISA); conditions: Homo sapiens, A549, A549 cells, phospho-STAT1 after IFNγ stimulation
Procedure, shortened: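 A549 cells given serial compound dilutions for 1 h at 37 °C, then stimulated with IFNγ at 10 ng/mL final for 30 min. Lysate STAT1 Ser727 phosphorylation measured by AlphaLISA; % inhibition vs stimulated/unstimulated DMSO controls, IC50 by nonlinear regression.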

Structure (SMILES) | IC50 [1] [nM] | IC50 [2] [nM]
N#CC1CC=C(c2nccn3ncc(-c4ccc(-c5cn[nH]c5)cc4)c23)CC1 (centres unmarked) [Compound P-0008, 4-(3-(4-(1H-pyrazol-4-yl)phenyl)pyrazolo[1,5-a]pyrazin-4-yl)cyclohex-3-ene-1-carbonitrile] | 0.1 to 100 | 0.1 to 100
N#CCCCn1cc(-c2ccc(-c3cnn4ccnc(C5=CCC(C#N)CC5)c34)cc2)cn1 (centres unmarked) [Compound P-0009, 4-(3-(4-(1-(3-cyanopropyl)-1H-pyrazol-4-yl)phenyl)pyrazolo[1,5-a]pyrazin-4-yl)cyclohex-3-ene-1-carbonitrile] | 0.1 to 100 | 0.1 to 100
N#CC1CC=C(c2nccn3ncc(-c4ccc(-c5cnn(C(F)F)c5)cc4)c23)CC1 (centres unmarked) [Compound P-0012, 4-(3-(4-(1-(difluoromethyl)-1H-pyrazol-4-yl)phenyl)pyrazolo[1,5-a]pyrazin-4-yl)cyclohex-3-ene-1-carbonitrile] | 0.1 to 100 | 0.1 to 100
N#CC1CCC(c2nccn3ncc(-c4ccc(-c5cnn(CC(N)=O)c5)cc4)c23)CC1 (centres unmarked) [Compound P-0013, 2-(4-(4-(4-((1s,4s)-4-cyanoclohexyl)pyrazolo[1,5-a]pyrazin-3-yl)phenyl)-1H-pyrazol-1-yl)acetamide] | 0.1 to 100 | 0.1 to 100
N#CCn1cc(-c2ccc(-c3cnn4ccnc(C5CCC(C#N)CC5)c34)cc2)cn1 (centres unmarked) [Compound P-0014, (1s,4s)-4-(3-(4-(1-(cyanomethyl)-1H-pyrazol-4-yl)phenyl)pyrazolo[1,5-a]pyrazin-4-yl)cyclohexane-1-carbonitrile] | 0.1 to 100 | 0.1 to 100
CS(=O)(=O)CCn1cc(-c2ccc(-c3cnn4ccnc(C5CCC(C#N)CC5)c34)cc2)cn1 (centres unmarked) [Compound P-0015, (1s,4s)-(3-(4-(1-(2-(methylsulfonyl)ethyl)-1H-pyrazol-4-yl)phenyl)pyrazolo[1,5-a]pyrazin-4-yl)cyclohexane-1-carbonitrile] | 0.1 to 100 | 0.1 to 100
N#CC1CCC(c2nccn3ncc(-c4ccc(-c5cnn(CCN6CCOCC6)c5)cc4)c23)CC1 (centres unmarked) [Compound P-0016, (1s,4s)-4-(3-(4-(1-(2-morpholinoethyl)-1H-pyrazol-4-yl)phenyl)pyrazolo[1,5-a]pyrazin-4-yl)cyclohexane-1-carbonitrile] | 0.1 to 100 | 0.1 to 100
N#CC1CCC(c2nccn3ncc(-c4ccc(-c5cnn(CCN6CCCC6)c5)cc4)c23)CC1 (centres unmarked) [Compound P-0017, (1s,4s)-4-(3-(4-(1-(2-(pyrrolidin-1-yl)ethyl)-1H-pyrazol-4-yl)phenyl)pyrazolo[1,5-a]pyrazin-4-yl)cyclohexane-1-carbonitrile] | 0.1 to 100 | 0.1 to 100
N#CC1CCC(c2nccn3ncc(-c4ccc(-c5cnn(CC6(C#N)CC6)c5)c(F)c4)c23)CC1 (centres unmarked) [Compound P-0018, (1s,4s)-4-(3-(4-(1-((1-cyanocyclopropyl)methyl)-1H-pyrazol-4-yl)-3-fluorophenyl)pyrazolo[1,5-a]pyrazin-4-yl)cyclohexane-1-carbonitrile] | 0.1 to 100 | 0.1 to 100
N#CCCn1cc(-c2ccc(-c3cnn4ccnc(C5CCC(C#N)CC5)c34)cc2F)cn1 (centres unmarked) [Compound P-0019, (1s,4s)-4-(3-(4-(1-(2-cyanoethyl)-1H-pyrazol-4-yl)-3-fluorophenyl)pyrazolo[1,5-a]pyrazin-4-yl)cyclohexane-1-carbonitrile] | 0.1 to 100 | 0.1 to 100
N#CC1CCC(c2nccn3ncc(-c4ccc(-c5cnn(CC6CC6)c5)cc4)c23)CC1 (centres unmarked) [Compound P-0020, (1s,4s)-4-(3-(4-(1-(cyclopropylmethyl)-1H-pyrazol-4-yl)phenyl)pyrazolo[1,5-a]pyrazin-4-yl)cyclohexane-1-carbonitrile] | 0.1 to 100 | 0.1 to 100
N#CC1CCC(c2nccn3ncc(-c4ccc(-c5cnn(CC(F)F)c5)cc4)c23)CC1 (centres unmarked) [Compound P-0021, (1s,4s)-4-(3-(4-(1-(2,2-difluoroethyl)-1H-pyrazol-4-yl)phenyl)pyrazolo[1,5-a]pyrazin-4-yl)cyclohexane-1-carbonitrile] | 0.1 to 100 | 0.1 to 100
N#CC1CCC(c2nccn3ncc(-c4ccc(-c5cnn(CC6CCC6)c5)cc4)c23)CC1 (centres unmarked) [Compound P-0022, (1s,4s)-4-(3-(4-(1-(cyclobutylmethyl)-1H-pyrazol-4-yl)phenyl)pyrazolo[1,5-a]pyrazin-4-yl)cyclohexane-1-carbonitrile] | 0.1 to 100 | 0.1 to 100
CS(=O)(=O)Cn1cc(-c2ccc(-c3cnn4ccnc(C5CCC(C#N)CC5)c34)cc2)cn1 (centres unmarked) [Compound P-0023, (1s,4s)-4-(3-(4-(1-((methylsulfonyl)methyl)-1H-pyrazol-4-yl)phenyl)pyrazolo[1,5-a]pyrazin-4-yl)cyclohexane-1-carbonitrile] | 0.1 to 100 | 0.1 to 100
Cc1cc(-c2cnn3ccnc(C4=CCC(C#N)CC4)c23)ccc1-c1cnn(CC(C)(C)O)c1 (centres unmarked) [Compound P-0024, 4-(3-(4-(1-(2-hydroxy-2-methylpropyl)-1H-pyrazol-4-yl)-3 methylphenyl)pyrazolo[1,5-a]pyrazin-4-yl)cyclohex-3-ene-1-carbonitrile] | 0.1 to 100 | 0.1 to 100
Cc1cc(-c2cnn3ccnc(C4CCC(C#N)CC4)c23)ccc1-c1cnn(CC(C)(C)O)c1 (centres unmarked) [Compound P-0025, (1s,4s)-4-(3-(4-(1-(2-hydroxy-2-methylpropyl)-1H-pyrazol-4-yl)-3-methylphenyl)pyrazolo[1,5-a]pyrazin-4-yl)cyclohexane-1-carbonitrile] | 0.1 to 100 | 0.1 to 100
N#CC1CC=C(c2nccn3ncc(-c4ccc(-c5cnn(CC(N)=O)c5)cc4)c23)CC1 (centres unmarked) [Compound P-0027, 2-(4-(4-(4-(4-cyanocyclohex-1-en-1-yl)pyrazolo[1,5-a]pyrazin-3-yl)phenyl)-1H-pyrazol-1-yl)acetamide] | 0.1 to 100 | 0.1 to 100
CS(=O)(=O)Cn1cc(-c2ccc(-c3cnn4ccnc(C5=CCC(C#N)CC5)c34)cc2)cn1 (centres unmarked) [Compound P-0028, 4-(3-(4-(1-((methylsulfonyl)methyl)-1H-pyrazol-4-yl)phenyl)pyrazolo[1,5-a]pyrazin-4-yl)cyclohex-3-ene-1-carbonitrile] | 0.1 to 100 | 0.1 to 100
N#CC1CC=C(c2nccn3ncc(-c4ccc(-c5cnn(CC(F)F)c5)cc4)c23)CC1 (centres unmarked) [Compound P-0029, 4-(3-(4-(1-(2,2-difluoroethyl)-1H-pyrazol-4-yl)phenyl)pyrazolo[1,5-a]pyrazin-4-yl)cyclohex-3-ene-1-carbonitrile] | 0.1 to 100 | 0.1 to 100
N#CCCn1cc(-c2ccc(-c3cnn4ccnc(C5=CCC(C#N)CC5)c34)cc2F)cn1 (centres unmarked) [Compound P-0030, 4-(3-(4-(1-(2-cyanoethyl)-1H-pyrazol-4-yl)-3-fluorophenyl)pyrazolo[1,5-a]pyrazin-4-yl)cyclohex-3-ene-1-carbonitrile] | 0.1 to 100 | 0.1 to 100
CC(C)(O)Cn1cc(-c2ccc(-c3cnn4ccnc(C5CCC(C#N)CC5)c34)cc2Cl)cn1 (centres unmarked) [Compound P-0031, (1s,4s)-4-(3-(3-chloro-4-(1-(2-hydroxy-2-methylpropyl)-1H-pyrazol-4-yl)phenyl)pyrazolo[1,5-a]pyrazin-4-yl)cyclohexane-1-carbonitrile] | 0.1 to 100 | 0.1 to 100
CC(C)(O)Cn1cc(-c2ccc(-c3cnn4ccnc(C5CCC(C#N)CC5)c34)cc2F)cn1 (centres unmarked) [Compound P-0032, (1s,4s)-4-(3-(3-fluoro-4-(1-(2-hydroxy-2-methylpropyl)-1H-pyrazol-4-yl)phenyl)pyrazolo[1,5-a]pyrazin-4-yl)cyclohexane-1-carbonitrile] | 0.1 to 100 | 0.1 to 100
CS(=O)(=O)CCn1cc(-c2ccc(-c3cnn4ccnc(C5=CCC(C#N)CC5)c34)cc2)cn1 (centres unmarked) [Compound P-0033, 4-(3-(4-(1-(2-(methylsulfonyl)ethyl)-1H-pyrazol-4-yl)phenyl)pyrazolo[1,5-a]pyrazin-4-yl)cyclohex-3-ene-1-carbonitrile] | 0.1 to 100 | 0.1 to 100
N#CC1CC=C(c2nccn3ncc(-c4ccc(-c5cnn(CC6CC6)c5)cc4)c23)CC1 (centres unmarked) [Compound P-0034, 4-(3-(4-(1-(cyclopropylmethyl)-1H-pyrazol-4-yl)phenyl)pyrazolo[1,5-a]pyrazin-4-yl)cyclohex-3-ene-1-carbonitrile] | 0.1 to 100 | 0.1 to 100
CC(C)Cn1cc(-c2ccc(-c3cnn4ccnc(C5=CCC(C#N)CC5)c34)cc2)cn1 (centres unmarked) [Compound P-0035, 4-(3-(4-(1-isobutyl-1H-pyrazol-4-yl)phenyl)pyrazolo[1,5-a]pyrazin-4-yl)cyclohex-3-ene-1-carbonitrile] | 0.1 to 100 | 0.1 to 100
